Here are results for one compound from patent US9133237B2, “Cyclic peptides with an anti-parasitic activity” (priority 2009, dated 2015).

Each structure is given as a SMILES string.

The subject of test [1] is HeLa cancer cells (cervical cancer). It is filed as cell-based. The method, then: (§1) The synthesized cyclic peptides were subject to tests in vitro on human fibroblasts infected by Toxoplasma gondii (Toxo), on non-infected human fibroblasts (HFF) and on HeLa cancer cells (cervical cancer) and MCF-7 cancer cells (breast cancer). Their respective efficiencies were tested at 90 nM as a preliminary test. The results are illustrated in Figure 1.

Test [2] deals with Toxoplasma gondii. It is filed as cell-based. The method, then:
as §1

The subject of test [3] is MCF-7 cancer cells (breast cancer). It is filed as cell-based. The method, then:
as §1

Test [4] concerns non-infected human fibroblasts (HFF). It is filed as cell-based. As to the method:
as §1

Test [5] relates to cysts (bradyzoite form) of murine brains. Nature of the test: ex vivo treatment of cysts of murine brains, re-inoculated intraperitoneally to mice. Format: in vivo, Toxoplasma gondii. The settings on record: cysts treated ex vivo at 200 nM for 7 days, Figure 3. As to the method:
The cyclic peptide (IV′f) was then tested on cysts (bradyzoite form) of murine brains ex vivo at 200 nM (Figure 3). The cysts after treatment for 7 days with the cyclic peptide (IV′f) were re-inoculated intraperitonally to the mice.

Consider `C[C@@H](O)C(=O)CCCCC[C@@H]1NC(=O)[C@H]2CCCN2C(=O)[C@H](Cc2ccccc2)NC(=O)C(C)(C)NC1=O` [(IV′f), (3S,9S,14aR)-9-benzyl-3-((R)-7-hydroxy-6-oxooctyl)-6,6-dimethyldecahydropyrrolo[1,2-a][1,4,7,10]tetraazacyclododecine-1,4,7,10-tetraone], for which, in test [1], the response was half-maximal at 474 nM (EC50) and the 90% effect concentration (EC90) was 1010 nM. In test [2], this compound returned an EC50 of 28.6 nM and an EC90 of 79.7 nM. Moreover, the “efficiency in preliminary test” value in test [2] (90 nM, Figure 1) is given as “interesting preliminary results”. In addition, in test [2] (Figure 2), the “activity compared with apicidin” value is “activity close to that of apicidin”; the effectiveness entry is recorded as “very good effectiveness, of the order of the nanomolar”; the “efficiency compared with pyrimethamine” value is listed as “much greater efficiency relatively to pyrimethamine”. Besides, the EC50 in test [3] was 533 nM. In test [4], this compound gave an EC50 of 647 nM and an EC90 of 4110 nM. Further, the “cysts in mice after injection of treated cysts” value in test [5] is “do not exhibit any cyst”.
